Patent publication US6350782B1, “Use of basic amino acids derivatives for lowering ceramide levels” (Sigma-Tau Industrie Farmaceutiche Riunite S.p.A., priority 1995, dated 2002)

Legend:
[1] = test system: Peripheral blood lymphocytes; assay: Ceramide in anti-Fas antibody stimulated peripheral blood lymphocytes (DAG kinase assay); assay type: cell-based; details: for Ceramide: 30 min at 37° C., then anti-Fas antibody 30 min, Control 20, Control + anti-Fas antibody 81.6; for Effect on synthesis of ceramide in vitro: anti-Fas stimulated lymphocytes
Source text: (§1) Ceramide levels can be directly measured by isolating peripheral blood lymphocytes from the patient. Thereafter the cells are centrifuged to eliminate the supernatant, and the lipids are removed from the cell pellet. The organic phase containing the ceramide can be assayed using the “DAG kinase assay” for phosphorylating the ceramide which is then evidenced by autoradiography [Cifone, M. G. et al., J. Exp. Med., 180(4): 1547-52].
Peripheral blood lymphocytes were isolated according to the classical methodologies. The cells were incubated with L-carnitine (200 mcg/ml) or with isovaleryl L-carnitine for 30 min at 37° C., and afterwards with an anti-Fas monoclonal antibody for another 30 min. The cells were then centrifuged, eleminating the supernatant, and the cell pellet was delipidized. The organic phase (containing the ceramide) was assayed in the “DAG kinase assay” for phosphorylating ceramide which subsequently was evidenced by autoradiography.
It is known that the cells suitably stimulated (i.e. with Fas-L, inter-leukin-1, etc.) generate ceramide. An anti-Fas antibody was employed to increase the production of ceramide from a basal value (20 picomoles per 10^6 cells) to 81.6 picomoles per 10^6 cells.

[2] = test system: peripheral blood lymphocyte-associated ceramide; assay: Peripheral blood lymphocyte-associated ceramide in patients with protein catabolism and lipidic depletion from tubercular infection; assay type: in vivo, human; details: 8 g per day parenteral, two weeks
Source text: as §1
Four patients affected by protein catabolism and lipidic depletion as a consequence of tubercular infection were treated for two weeks with 8 g per day L-carnitine by parenteral route.
The peripheral blood lymphocyte-associated ceramide was determined before and after the treatment.

Ceramide in the muscles = assay: Muscle ceramide in patients with symptomatic neuro-myopathy (chronic fatigue syndrome); assay type: in vivo, human; details: 3 g per day oral, two months
Description: Two patients affected by symptomatic neuro-myopathy (chronic fatigue syndrome) were treated with 3 g per clay of L-carnitine by oral route through two months. Ceramide was measured in the muscles before and after the administration.

[3] = test system: lymphocyte-associated ceramide; assay: Lymphocyte-associated ceramide in patients with hepato-splenomegaly due to viral hepatitis of C type; assay type: in vivo, human; details: 4 g bolus intravenous
Source text: Ceramide levels can be directly measured by isolating peripheral blood lymphocytes from the patient. Thereafter the cells are centrifuged to eliminate the supernatant, and the lipids are removed from the cell pellet. The organic phase containing the ceramide can be assayed using the “DAG kinase assay” for phosphorylating the ceramide which is then evidenced by autoradiography [Cifone, M. G. et al., J. Exp. Med., 180(4): 1547-52]. Three patients with hepato-splenomegaly due to viral hepatitis of C type were treated with 4 g of L-carnitine bolus by intravenous route. The lymphocyte-associated ceramide was determined before and after 3 and 48 hours following the infusion.

[4] = test system: lymphocyte-associated ceramide; assay: Lymphocyte-associated ceramide in hyperthyroidism patients treated with metimazole; assay type: in vivo, human; details: 8 g per day oral, 4 weeks
Source text: Ceramide levels can be directly measured by isolating peripheral blood lymphocytes from the patient. Thereafter the cells are centrifuged to eliminate the supernatant, and the lipids are removed from the cell pellet. The organic phase containing the ceramide can be assayed using the “DAG kinase assay” for phosphorylating the ceramide which is then evidenced by autoradiography [Cifone, M. G. et al., J. Exp. Med., 180(4): 1547-52]. Four patients affected by hyperthyroidism who had been treated with metimazole (15 mg by oral route, daily) for more than eight months, were treated for 4 weeks with 8 g per day L-carnitine by oral route. The lymphocyte-associated ceramide was determinded before and after the treatment.

With `CC(C)CC(=O)O[C@H](CC(=O)[O-])C[N+](C)(C)C` [isovaleryl L-carnitine] the Ceramide ([1]; 50 mcg/ml) was 8.6 picomoles per 10^6 cells, the Ceramide ([1]; 100 mcg/ml) was 7.3 picomoles per 10^6 cells and the “Effect on synthesis of ceramide in vitro” value [1] was “inhibit the synthesis of ceramide in vitro”.
With `C[N+](C)(C)C[C@H](O)CC(=O)[O-]` [L-carnitine] the Ceramide post-treatment ([2]; Patient 1, pre-treatment 127) was 59 picomoles/10^6 cells, the Ceramide post-treatment ([2]; Patient 2, pre-treatment 265) was 77 picomoles/10^6 cells and the Ceramide post-treatment ([2]; Patient 3, pre-treatment 301) was 152 picomoles/10^6 cells. For the same compound, the Ceramide post-treatment ([2]; Patient 4, pre-treatment 78) was 54 picomoles/10^6 cells, the Ceramide ([1]; 100 mcg/ml) was 7.3 picomoles per 10^6 cells and the “Effect on synthesis of ceramide in vitro” value [1] was “inhibit the synthesis of ceramide in vitro”. The Ceramide post-treatment (Ceramide in the muscles; Patient 1, pre-treatment 76) was 28 picomoles per mg of proteins, the Ceramide post-treatment (Ceramide in the muscles; Patient 2, pre-treatment 142) was 46 picomoles per mg of proteins and the “Duration of the effect on ceramide levels” value [3] was “remains at least for two days”. For the same compound, the “Effect of bolus on ceramide levels” value ([3]; after 3 hours from the infusion) was “inhibited the increase of ceramide levels already after 3 hours”, the “Ceramide After 3 hrs” value ([3]; Patient 1, pre-treatment 65) was 12 picomoles/10^6 cells and the “Ceramide After 48 hrs” value ([3]; Patient 1, pre-treatment 65) was 31 picomoles/10^6 cells. For the same compound, the “Ceramide After 3 hrs” value ([3]; Patient 2, pre-treatment 77) was 32 picomoles/10^6 cells, the “Ceramide After 48 hrs” value ([3]; Patient 2, pre-treatment 77) was 21 picomoles/10^6 cells and the “Ceramide After 3 hrs” value ([3]; Patient 3, pre-treatment 79) was 24 picomoles/10^6 cells. For the same compound, the “Ceramide After 48 hrs” value ([3]; Patient 3, pre-treatment 79) was 23 picomoles/10^6 cells, the Ceramide post-treatment ([4]; Patient 1, pre-treatment 73) was 26 picomoles/10^6 cells and the Ceramide post-treatment ([4]; Patient 2, pre-treatment 45) was 27 picomoles/10^6 cells. It also gave a Ceramide post-treatment ([4]; Patient 3, pre-treatment 111) of 36 picomoles/10^6 cells and a Ceramide post-treatment ([4]; Patient 4, pre-treatment 69) of 18 picomoles/10^6 cells.
